# Key:
# DMM mice (C57BL/6) [1] = test: Tactile sensitivity testing (von Frey) in DMM OA mice; format: in vivo; settings: oral administration, 8 weeks, summary over von Frey and open field tests
# Procedure: Mice were acclimated for 30 minutes in individual chambers on top of a wire grid platform prior to von Frey testing. The plantar surface of the hind paw was stimulated with ascending force intensities of von Frey filaments (Stoelting) to determine tactile sensitivity. A positive response was defined as a rapid withdrawal of the hind paw when the stimulus was applied, and the number of positive responses for each stimulus was recorded. Tactile threshold was defined as a withdrawal response in 5 out of 10 trials to a given stimulus intensity (38). This threshold was calculated once per animal.
# To determine pain relief, three animal behavior assessments were used: 1) von Frey, which determined sensitivity to mechanical stimuli [OA animals tend to have lower thresholds of pain to mechanical stimuli]; 2) distance traveled—a measure of joint movement [OA animals tend to move a lesser distance compared to non-OA animals]; 3) rearing—a measure of joint function [OA animals tend to rear, or stand up on their hind limbs less than non-OA animals].
# DMM mice (C57BL/6) [2] = test: Slowing progression of OA in DMM post-traumatic OA mouse model (Safranin O staining, OARSI score); format: in vivo; settings: for cartilage damage (fibrillation, erosion, loss of aggrecans) by Safranin O staining: oral daily for 8 weeks; for mean OARSI score ± standard deviation: oral gavage daily for 8 weeks, Carvacrol 50 mg/kg, Curcumin 50 mg/kg, EGCG 5 mg/kg, OPC 50 mg/kg or combination, score 0 healthy to 6 severe erosion, 8 animals/group
# From the text: Induction of osteoarthritis in mice. All studies were approved by the Albert Einstein College of Medicine Institutional Animal Care and Use Committee. Destabilization of the medial meniscus (DMM) was established in adult C57BL/6 mice (male, 5-6 months) by surgically transecting the medial meniscotibial ligament (MMTL) in the right hind limb (36). Briefly, the joint capsule immediately medial to the patellar tendon was incised, followed by blunt dissection of the fat pad, to provide visualization of the MMTL of the medial meniscus. The MMTL was transected, leading to DMM. In the sham surgery, the MMTL was visualized but not transected. The joint capsule and skin were closed with suture.
# Animals were euthanized, hindlimbs were fixed in formalin, decalcified in formic acid, embedded in paraffin and sectioned for histology and immunohistochemistry. Sections were incubated overnight at 4° C. with antibodies against cleaved aggrecan (NITEGE, Ibex) and cleaved type II collagen (Col2-3/4M, Ibex), MMP-13 (Abcam), and ADAMTS5 (Abcam) followed by incubation with anti-mouse or anti-rabbit secondary antibody (Biocare Medical) and visualization with DAB chromagen (Vector Laboratories). Negative controls were stained with irrelevant isotype-matched antibodies (Biocare Medical). Safranin O-fast green staining was used to visualize proteoglycans in the articular cartilage. Severity of OA was evaluated for each mouse using the Osteoarthritis Research Society International (OARSI) scoring system (34) Immunostaining intensity for type II collagen or aggrecan cleavage epitopes was quantified by determining the “reciprocal intensity” of the stained articular cartilage matrix. Briefly, the light intensity value of random locations within azones from the posterior to anterior direction of the femoral and tibial condyles was measured using the color picker in Adobe Photoshop (37). Percentages of positive MMP-13 and ADAMTS5 chondrocytes were determined by counting the number of immunostained cells and dividing by the total number of chondrocytes visualized by a hematoxylin counterstain (Vector Laboratories).
# To determine the efficacy of the C′-CEO formulation in slowing progression of OA in vivo, a well-established post-traumatic mouse model of OA was used. These OA mice were orally administered C′-CEO, individual compounds, or placebo daily. Severity of OA was evaluated 8 weeks after induction of OA, using a well-established and FDA recommended cartilage integrity stain, Safranin O, and a semi-quantitative Osteoarthritis Research Society International (OARSI) scoring system. Furthermore, the efficacy of the C′-CEO formulation was validated by examining the level of breakdown of two major cartilage matrix proteins, type II collagen and aggrecan, as cartilage degradation is a hallmark of OA. It was further examined how the C′-CEO formulation may have such effect by targeting CITED2 by examining CITED2 expression in the articular cartilage of these OA mice.
# All studies were approved by the Albert Einstein College of Medicine Institutional Animal Care and Use Committee. Destabilization of the medial meniscus (DMM) was established in adult C57BL/6 mice (male, 5-6 months) by surgically transecting the medial meniscotibial ligament (MMTL) in the right hind limb Immediately after surgery, mice were administered either carvacrol (C′), curcumin (C), EGCG (E), OPC(O), C′-CEO, or vehicle control for 8 weeks. At 8 weeks following surgery, animals were euthanized, the hindlimbs were fixed in formalin, decalcified in formic acid, embedded in paraffin and sectioned for histology. Safranin O, a well-stablished cartilage stain, was used to visualize integrity of the articular cartilage and aggrecans in the articular cartilage. Severity of OA was evaluated using the OARSI scoring system.
Compound,"pain relief of OA-associated pain (overall: mechanical sensitivity, joint movement and function) (DMM mice (C57BL/6) [1])","cartilage damage (fibrillation, erosion, loss of aggrecans) by Safranin O staining (DMM mice (C57BL/6) [2])",mean OARSI score ± standard deviation (DMM mice (C57BL/6) [2])
Cc1ccc(C(C)C)cc1O [Carvacrol],did not result in a statistical improvement in pain relief,some reduction in cartilage degradation,2.9 ± 0.45
COc1cc(/C=C/C(=O)CC(=O)/C=C/c2ccc(O)c(OC)c2)ccc1O [Curcumin],did not result in a statistical improvement in pain relief,some reduction in cartilage degradation,2.4 ± 0.42
Epigallocatechin-3-gallate [EGCG],did not result in a statistical improvement in pain relief,some reduction in cartilage degradation,2.1 ± 0.29

# From patent US10772846B2, “Methods and compositions for treating and preventing arthritis” (Montefiore Medical Center, priority 2014, dated 2020)
